Columns and labels:
Type in all cases: cell-based
[1] = test system: Candida albicans biofilms; experiment: Eradication of mature Candida albicans biofilms (xCELLigence); details: mature biofilms at 24 h; micafungin 1.5 μg/ml plus zymolyase 171 μg/ml, or 0.15% hydrogen peroxide
Protocol: Effect of platinum and mesoporous silica nanoparticles on the eradication of mature Candida albicans biofilms. C. albicans biofilms were cultured in the micro dilution plates of the xCELLigence system for 24 h and then treated with a combination of free micafungin together with zymolyase (an enzyme with the ability to disperse biofilm-forming cells), indicated in the legend as MZ, or with nanoparticles loaded with the antifungal micafungin and anchored with the enzyme zymolyase. […] The black curve represents the growth of the untreated biofilm and the black arrow indicates the time when the treatment was added.

[2] = test system: polymicrobial oral biofilms (dental plaque); experiment: Effect on preformed oral biofilms derived from saliva (xCELLigence); details: 16 μg/ml, two donors (A, B)
Protocol: FIG. 5.1. Effect of platinum and mesoporous silica nanoparticles loaded with metronidazole on preformed oral biofilms derived from saliva samples of two independent donors (A and B). The biofilms were grown in the xCELLigence system for 6 hours, and subsequently treated with metronidazole in suspension (concentration of 16 μg/ml) or with nanoparticles loaded with metronidazole (1 mg/ml of nanoparticles containing 2.25 μg metronidazole). The black arrows indicate the time when the treatment was added, whereas the black curves represent the untreated control. The biofilm comes from saliva samples and contains a complex microbial community made up of dozens of dental plaque-forming bacteria. To investigate the effect of platinum (Pt) and mesoporous silica nanoparticles on polymicrobial oral biofilms (dental plaque), biofilms derived from the saliva of two independent donors were cultured in the xCELLigence system for 6 hours, following the protocol described by Mira et al. 2019 (J Oral Microbiol). Subsequently, free metronidazole (at a concentration of 16 μg/ml), or nanoparticles with metronidazole (1 mg/ml of nanoparticles containing 2.25 μg of metronidazole) was added to evaluate the effect on said biofilms. […]

[3] = test system: endodontic biofilms from root canals; experiment: Disruption of endodontic biofilms (xCELLigence); details: 16 μg/ml in suspension, added after 6 h of growth
Protocol: FIG. 4.1. Disruption of endodontic biofilms using platinum and silica nanoparticles loaded with metronidazole. Endodontic biofilms were cultured in the xCELLigence system and after 6 hours of growth they were treated with 1 mg/ml of nanoparticles containing 2.25 μg of metronidazole, or with metronidazole in suspension at a concentration of 16 μg/ml, and compared to the untreated control (black curve). The black arrow indicates the time when the biofilm was treated. The biofilm comes from root canal samples extracted during a root canal and contains a complex microbial community formed by dozens of bacteria that cause this infection. Endodontic biofilms from root canals were collected with sterile files and placed in 1 ml of VMG (Ill) transport medium ([…] et al., 1993). Subsequently, the samples were transported to the laboratory where they were subjected to stirring for 3 minutes. Then, the files were extracted, the samples were centrifuged for 5 min at 10,000 rpm and the supernatant was discarded. The obtained pellet was resuspended with 1 ml of BHI (brain-heart infusion) culture medium and the samples were cultured in micro dilution plates of the xCELLigence impedance measurement system for 6 h, following the protocol described by Mira et al. 2019 (J Oral Microbiol). […]

| SMILES | effect on biofilm formation [1] | effect on salivary biofilm growth [2] | more biofilm formation compared to the untreated control [3] |
| --- | --- | --- | --- |
| OO [hydrogen peroxide] | induced the formation of biofilms | – | – |
| Cc1ncc([N+](=O)[O-])n1CCO [metronidazole] | – | induction of biofilm growth | up to 15% |
